Test results published in patent US20230391778A1, “INDOLIN-2-ONE OR PYRROLO -PYRIDIN -2 -ONE DERIVATIVES” (Hoffmann-La Roche Inc., priority 2014, published 2023).
Counter-ions that a name gives are not always drawn.

Target: T1, mouse ENT-1 transporter (Mus musculus, UniProt Q9JIM1)
T1 construct: expressed in transfected cells
T1 sequence (Q9JIM1 1-460): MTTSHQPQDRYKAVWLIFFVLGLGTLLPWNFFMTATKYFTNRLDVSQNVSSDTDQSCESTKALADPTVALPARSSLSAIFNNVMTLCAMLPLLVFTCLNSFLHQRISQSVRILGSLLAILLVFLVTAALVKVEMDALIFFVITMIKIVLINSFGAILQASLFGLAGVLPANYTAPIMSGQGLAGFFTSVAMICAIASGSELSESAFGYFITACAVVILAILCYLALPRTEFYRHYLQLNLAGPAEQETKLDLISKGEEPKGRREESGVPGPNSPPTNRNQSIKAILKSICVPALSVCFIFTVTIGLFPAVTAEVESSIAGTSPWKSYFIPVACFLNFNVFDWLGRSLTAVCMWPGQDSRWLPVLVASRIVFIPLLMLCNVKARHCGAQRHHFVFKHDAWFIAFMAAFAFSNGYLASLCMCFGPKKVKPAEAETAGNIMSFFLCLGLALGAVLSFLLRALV
Experiment: Measure of adenosine transport activity (ENT1 adenosine uptake inhibition)
Format: cell-based
Conditions: stable cells expressing mouse ENT-1, [2,8-3H]-adenosine 6 nM, 20 min
Experimental: To measure adenosine transport activity of ENT-1 mammalian cells, stable cells expressing the mouse ENT-1 transporter were plated on day 1 in 96-well culture plates at the density of 60,000 cells/well, in complete DMEM/F12 medium supplemented with glutamax, 10% FBS and 10 μg/ml puromycin. On day 2, the medium was aspirated and the cells were washed twice with uptake buffer (10 mM Hepes-Tris, pH 7.4 containing 150 mM NaCl, 1 mM CaCl2), 2.5 mM KCl, 2.5 mM MgSO4, 10 mM D-glucose) (UB). For inhibition experiments, cells were then incubated at RT with various concentrations of compounds with 1% DMSO final. Non-specific uptake was defined in the presence of 10 μM S-(4-Nitrobenzyl)-6-thioinosine (NBTI, Sigma Cat #N2255).
The plates were then incubated for 20 min with gentle shaking and the reaction was stopped by aspiration of the mixture and washing (three times) with ice-cold UB. The cells were lysed by the addition of scintillation liquid, shaken 3 hours and the radioactivity in the cells was estimated using a microplates scintillation counter (TopCount NXT, Packard).

Structure (SMILES) | IC50
Cc1cc(N2C(=O)C(C)(C)c3ccc(-c4cnc(C)nc4)cc32)cc(C)n1 [Example 66, 1-(2,6-Dimethylpyridin-4-yl)-3,3-dimethyl-6-(2-methylpyrimidin-5-yl)indolin-2-one] | 1140 nM
Cc1cc(C)nc(N2C(=O)C(C)(C)c3ccc(-c4cnc(C)nc4)cc32)n1 [Example 67, 1-(4,6-Dimethylpyrimidin-2-yl)-3,3-dimethyl-6-(2-methylpyrimidin-5-yl)indolin-2-one] | 5630 nM
Cc1cc(N2C(=O)C(C)(C)c3ccc(-c4cnc(C)nc4)cc32)nc(C)n1 [Example 68, 1-(2,6-Dimethylpyrimidin-4-yl)-3,3-dimethyl-6-(2-methylpyrimidin-5-yl)indolin-2-one] | 502 nM
Cc1ncc(-c2ccc3c(c2)N(c2cc(C)c(C)cn2)C(=O)C3(C)C)cn1 [Example 69, 1-(4,5-Dimethylpyridin-2-yl)-3,3-dimethyl-6-(2-methylpyrimidin-5-yl)indolin-2-one] | 1280 nM
Cc1ncc(-c2ccc3c(c2)N(c2cnc(C)c(C)c2)C(=O)C3(C)C)cn1 [Example 75, 1-(5,6-dimethylpyridin-3-yl)-3,3-dimethyl-6-(2-methylpyrimidin-5-yl)indolin-2-one] | 827 nM
Cc1ncc(-c2ccc3c(c2)N(c2cccnn2)C(=O)C3(C)C)cn1 [Example 76, 3,3-dimethyl-6-(2-methylpyrimidin-5-yl)-1-(pyridazin-3-yl)indolin-2-one] | 2100 nM
Cc1ncc(-c2ccc3c(c2)N(c2ncccn2)C(=O)C3(C)C)cn1 [Example 79, 3,3-dimethyl-6-(2-methylpyrimidin-5-yl)-1-(pyrimidin-2-yl)indolin-2-one] | 3880 nM
Cc1ncc(-c2ccc3c(c2)N(c2cnn(C)c2)C(=O)C3(C)C)cn1 [Example 80, 3,3-dimethyl-1-(1-methyl-1H-pyrazol-4-yl)-6-(2-methylpyrimidin-5-yl)indolin-2-one] | 1500 nM
Cc1ncc(-c2ccc3c(c2)N(c2cn[nH]c2)C(=O)C3(C)C)cn1 [Example 83, 3,3-dimethyl-6-(2-methylpyrimidin-5-yl)-1-(1H-pyrazol-4-yl)indolin-2-one] | 4660 nM
Cc1ncc(-c2ccc3c(c2)N(c2cncnc2C)C(=O)C3(C)C)cn1 [Example 84, 3,3-dimethyl-6-(2-methylpyrimidin-5-yl)-1-(4-methylpyrimidin-5-yl)indolin-2-one] | 15600 nM
Cc1ncc(-c2ccc3c(c2)N(c2c[nH]cn2)C(=O)C3(C)C)cn1 [Example 85, 1-(1H-imidazol-4-yl)-3,3-dimethyl-6-(2-methylpyrimidin-5-yl)indolin-2-one] | 5240 nM
Cc1cc(N2C(=O)C(C)(C)c3ccc(-c4cnc(C)nc4)cc32)[nH]n1 [Example 86, 3,3-dimethyl-1-(3-methyl-1H-pyrazol-5-yl)-6-(2-methylpyrimidin-5-yl)indolin-2-one hydrochloride] | 423 nM
Cc1ncc(-c2ccc3c(c2)N(c2cn(C)nn2)C(=O)C3(C)C)cn1 [Example 87, 3,3-dimethyl-1-(1-methyl-1H-1,2,3-triazol-4-yl)-6-(2-methylpyrimidin-5-yl)indolin-2-one] | 2070 nM
Cc1ncc(-c2ccc3c(c2)N(c2ncc(C)[nH]2)C(=O)C3(C)C)cn1 [Example 88, 3,3-dimethyl-1-(4-methyl-1H-imidazol-2-yl)-6-(2-methylpyrimidin-5-yl)indolin-2-one] | 7660 nM
Cc1ncc(-c2ccc3c(c2)N(c2ncc[nH]2)C(=O)C3(C)C)cn1 [Example 92, 1-(1H-imidazol-2-yl)-3,3-dimethyl-6-(2-methylpyrimidin-5-yl)indolin-2-one] | 1290 nM
CCn1ccc(N2C(=O)C(C)(C)c3ccc(-c4cnc(C)nc4)cc32)n1 [Example 94, 1-(1-ethyl-1H-pyrazol-3-yl)-3,3-dimethyl-6-(2-methylpyrimidin-5-yl)indolin-2-one] | 1160 nM
Cc1ncc(-c2ccc3c(c2)N(c2cnc(C#N)cn2)C(=O)C3(C)C)cn1 [Example 96, 5-(3,3-dimethyl-6-(2-methylpyrimidin-5-yl)-2-oxoindolin-1-yl)pyrazine-2-carbonitrile] | 154 nM
Cc1ncc(-c2ccc3c(c2)N(c2cnccc2C)C(=O)C3(C)C)cn1 [Example 99, 3,3-dimethyl-1-(4-methylpyridin-3-yl)-6-(2-methylpyrimidin-5-yl)indolin-2-one] | 4330 nM
Cc1ncc(-c2ccc3c(c2)N(c2cnc(CO)nc2)C(=O)C3(C)C)cn1 [Example 102, 1-(2-(hydroxymethyl)pyrimidin-5-yl)-3,3-dimethyl-6-(2-methylpyrimidin-5-yl)indolin-2-one] | 10200 nM

Now from value to compound:

IC50 | Structure (SMILES)
18400 nM | Cc1ncc(-c2ccc3c(c2)N(c2cnc(CN)nc2)C(=O)C3(C)C)cn1 [Example 103, 1-[2-(aminomethyl)pyrimidin-5-yl]-3,3-dimethyl-6-(2-methylpyrimidin-5-yl)indol-2-one]
7000 nM | Cc1ncc(-c2ccc3c(c2)N(c2nnn(C)n2)C(=O)C3(C)C)cn1 [Example 105, 3,3-dimethyl-1-(2-methyl-2H-tetrazol-5-yl)-6-(2-methylpyrimidin-5-yl)indolin-2-one]
2190 nM | Cc1ncc(-c2ccc3c(c2)N(c2ccc(C)[n+]([O-])n2)C(=O)C3(C)C)c[n+]1[O-] [Example 107, 3-(3,3-dimethyl-6-(2-methyl-1-oxidopyrimidin-5-yl)-2-oxoindolin-1-yl)-6-methylpyridazine 1-oxide]
1900 nM | Cc1ncc(-c2ccc3c(c2)N(c2cnc(CF)nc2)C(=O)C3(C)C)cn1 [Example 108, 1-(2-(fluoromethyl)pyrimidin-5-yl)-3,3-dimethyl-6-(2-methylpyrimidin-5-yl)indolin-2-one]
456 nM | Cc1ncc(-c2ccc3c(c2)N(c2cnc(Cl)nc2)C(=O)C3(C)C)cn1 [Example 114, 1-(2-chloropyrimidin-5-yl)-3,3-dimethyl-6-(2-methylpyrimidin-5-yl)indolin-2-one]
144 nM | Cc1ncc(-c2ccc3c(c2)N(c2cc(Cl)nc(Cl)c2)C(=O)C3(C)C)cn1 [Example 115, 1-(2,6-dichloropyridin-4-yl)-3,3-dimethyl-6-(2-methylpyrimidin-5-yl)indolin-2-one]
35 nM | Cc1ncc(-c2ccc3c(c2)N(c2cnc(Cl)cn2)C(=O)C3(C)C)cn1 [Example 117, 1-(5-chloropyrazin-2-yl)-3,3-dimethyl-6-(2-methylpyrimidin-5-yl)indol-2-one]
335 nM | Cc1cc(N2C(=O)C(C)(C)c3ccc(-c4cnc(C)nc4)cc32)cc(Cl)n1 [Example 119, 1-(2-chloro-6-methylpyridin-4-yl)-3,3-dimethyl-6-(2-methylpyrimidin-5-yl)indolin-2-one]
669 nM | Cc1ncc(-c2ccc3c(c2)N(c2cc(Cl)nc(C)n2)C(=O)C3(C)C)cn1 [Example 121, 1-(6-chloro-2-methylpyrimidin-4-yl)-3,3-dimethyl-6-(2-methylpyrimidin-5-yl)indolin-2-one]
626 nM | Cc1cnnc(N2C(=O)C(C)(C)c3ccc(-c4cnc(C)nc4)cc32)c1 [Example 122, 3,3-dimethyl-1-(5-methylpyridazin-3-yl)-6-(2-methylpyrimidin-5-yl)indolin-2-one]
694 nM | Cc1ncc(-c2ccc3c(c2)N(c2nc(C)ns2)C(=O)C3(C)C)cn1 [Example 123, 3,3-dimethyl-1-(3-methyl-1,2,4-thiadiazol-5-yl)-6-(2-methylpyrimidin-5-yl)indolin-2-one]
851 nM | Cc1ncc(-c2ccc3c(c2)N(c2nccc(Cl)n2)C(=O)C3(C)C)cn1 [Example 128, 1-(4-chloropyrimidin-2-yl)-3,3-dimethyl-6-(2-methylpyrimidin-5-yl)indolin-2-one]
887 nM | COCc1ccc(N2C(=O)C(C)(C)c3ccc(-c4cnc(C)nc4)cc32)cn1 [Example 129, 1-(6-(methoxymethyl)pyridin-3-yl)-3,3-dimethyl-6-(2-methylpyrimidin-5-yl)indolin-2-one]
2370 nM | Cc1ncc(-c2ccc3c(c2)N(c2cc(C4CC4)cnn2)C(=O)C3(C)C)cn1 [Example 130, 1-(5-cyclopropylpyridazin-3-yl)-3,3-dimethyl-6-(2-methylpyrimidin-5-yl)indolin-2-one]
2450 nM | Cc1cnc(-c2ccc3c(c2)N(c2cncc(C)n2)C(=O)C3(C)C)cn1 [Example 132, 3,3-dimethyl-6-(5-methylpyrazin-2-yl)-1-(6-methylpyrazin-2-yl)indolin-2-one]
4780 nM | Cc1cnc(-c2ccc3c(c2)N(c2cnc(C)nc2)C(=O)C3(C)C)cn1 [Example 133, 3,3-dimethyl-6-(5-methylpyrazin-2-yl)-1-(2-methylpyrimidin-5-yl)indolin-2-one]
36 nM | Cc1ncc(-c2ccc3c(c2)N(c2ccc(C4CC4)nn2)C(=O)C3(C)C)cn1 [Example 134, 1-(6-cyclopropylpyridazin-3-yl)-3,3-dimethyl-6-(2-methylpyrimidin-5-yl)indolin-2-one]
